{"source": "patent US8680251B2", "about": "“Triterpenoid 2-deoxy glycosides, method of preparation thereof and use thereof as medicaments” (Univerzita Palackeho V Olomouci, priority 2008, dated 2014)", "key": {"[1]": {"test_system": "CEM-DNR-bulk (T-lymfoblastic leukemia resistant to doxorubicin)", "test": "Cytotoxic MTT test, CEM-DNR-bulk", "format": "cell-based", "conditions": "CEM-DNR-BULK cells, 72 h", "source_text": "(§1) Cytotoxic MTT test on cell lines derived from normal tissues and tumors were used for assessing the antitumor activity of the novel compounds in vitro. We used namely the lines K562 (human myeloid leukemia), K562-tax (human myeloid leukemia resistant to taxol and overexpressing the protein of multiple drug resistance PgP), CEM (T-lymfoblastic leukemia), CEM-DNR-bulk (T-lymfoblastic leukemia resistant to doxorubicin, lacking the expression of the target gene for topoisomerase II alfa inhibitors and expressing the multiple drug resistance protein MRP1), line A549 (human lung adenocarcinoma), line HT-29 (human colorectal adenocarcinoma), MCF-7 (human breast adenocarcinoma, p53 wild type), HCT116 p53wt (human colorectal adenocarcinoma, wild-type p53), HCT116 p53mut (human colorectal adenocarcinoma with mutated p53), U87Mg (human glioblastoma). Expression characteristics, sensitivity profiles to classical antitumor drugs and methodology of the cytotoxic MTT test were repeatedly published (Nosková V. et al., Neoplasma 2002, S arek J. et al., J. Med. Chem., 2003, Dzubák P. et al., Bioorg. Med. Chem., 2006).\n(§2) The MTT test was carried out according to the following procedure. The tested compound in six dilutions (final concentration of 250 μmol/l, another five concentrations were obtained by 4-fold, 16-fold, 64-fold, 256-fold and 1024-fold dilution of this solution) was added to tissue culture of cells in the cultivation plate wells. Each concentration was tested in doublet. The cell suspension was incubated in the environment containing the tested compound for 72 h at 37° C., in 5% CO2 atmosphere and 100% humidity. MTT—[3-(4,5-dimethylthiazol-2-yl)-2,5-difenyl-2H-tetrazolium bromid]—was then added to each well and the incubation was continued for additional 4 h. The incubation was finished by an addition of sodium dodecansulphonate and the percentage of surviving cells was determined spectrophotometrically at 540 nm. The concentration lethal for 50% of the tumor cells—IC50—was calculated from dose-response curves."}, "[2]": {"test_system": "HT-29 (human colorectal adenocarcinoma)", "test": "Cytotoxic MTT test, HT-29", "format": "cell-based", "conditions": "HT-29 cells, 72 h", "source_text": "as §1, §2"}, "[3]": {"test_system": "K562 (human myeloid leukemia)", "test": "Cytotoxic MTT test, K562", "format": "cell-based", "conditions": "K562 cells, 72 h", "source_text": "as §1, §2"}, "PC-3": {"test_system": "PC-3", "test": "Cytotoxic MTT test, PC-3", "format": "cell-based", "conditions": "PC-3 cells, 72 h"}, "[4]": {"test_system": "CEM (T-lymfoblastic leukemia)", "test": "Cytotoxic MTT test, CEM", "format": "cell-based", "conditions": "CEM cells, 72 h", "source_text": "as §1, §2"}, "[5]": {"test_system": "HCT116 p53wt (human colorectal adenocarcinoma, wild-type p53)", "test": "Cytotoxic MTT test, HCT116 p53wt", "format": "cell-based", "conditions": "72 h", "source_text": "as §1, §2"}, "[6]": {"test_system": "U87Mg (human glioblastoma)", "test": "Cytotoxic MTT test, U87Mg", "format": "cell-based", "conditions": "U87Mg cells, 72 h", "source_text": "as §1, §2"}, "[7]": {"test_system": "MCF-7 (human breast adenocarcinoma, p53 wild type)", "test": "Cytotoxic MTT test, MCF-7", "format": "cell-based", "conditions": "72 h", "source_text": "as §1, §2"}, "[8]": {"test_system": "K562-tax (human myeloid leukemia resistant to taxol)", "test": "Cytotoxic MTT test, K562-tax", "format": "cell-based", "conditions": "K562-tax cells, 72 h", "source_text": "as §1, §2"}, "[9]": {"test_system": "HCT116 p53mut (human colorectal adenocarcinoma with mutated p53)", "test": "Cytotoxic MTT test, HCT116 p53mut", "format": "cell-based", "conditions": "72 h", "source_text": "as §1, §2"}, "[10]": {"test": "Storage stability of cyclodextrin solution", "format": "physicochemical", "conditions": "solution of 3a with 2-hydroxypropyl-γ-cyclodextrin in water/propylene glycol, freezer at −20 C, several months", "protocol": "2-hydroxypropyl-γ-cyclodextrin (7.00 g) was dissolved under vigorous stirring and at the temperature of 50° C. in a mixture of water (14.0 ml) and propylene glycol (6.0 ml). 2-deoxy galactoside 3a (1.00 g) is then added at once into the resulting colourless viscous solution and the mixture is vigorously stirred at the temperature of 50° C. Usually, 20 min is needed for complete dissolution. After complete dissolution of the triterpenoid, the resulting bright solution is cooled down to room temperature, filtered by an injection syringe filter (hydrophilic, pore size 0.22 μm) in order to be sterile and is placed to a refrigerator. […] The thus prepared formulation can be used for oral or, after optionally adding a saline solution, for intravenous administration."}}}
{"smiles": "CC(=O)OC[C@H]1O[C@H](OC[C@@]23CC[C@]4(C)C(CCC5[C@@]6(C)CC[C@H](OC(C)=O)C(C)(C)C6CC[C@]54C)C2=C(C(C)C)C(=O)C3)C[C@@H](OC(C)=O)[C@H]1OC(C)=O", "note": "(stereo partly shown) [Compound 1a]", "values": [{"measurement": "IC50", "setting": "[1]", "value": 12.5, "unit": "µM"}, {"measurement": "IC50", "setting": "[2]", "value": 11.4, "unit": "µM"}, {"measurement": "IC50", "setting": "[3]", "value": 2.4, "unit": "µM"}, {"measurement": "IC50", "setting": "PC-3", "value": 23.5, "unit": "µM"}, {"measurement": "IC50", "setting": "[4]", "value": 1.8, "unit": "µM"}, {"measurement": "IC50", "setting": "[5]; HCT116 p53wt cells", "value": 7.9, "unit": "µM"}, {"measurement": "IC50", "setting": "[6]", "value": "≥ 250", "unit": "µM"}, {"measurement": "IC50", "setting": "[7]; MCF-7 cells", "value": 11.4, "unit": "µM"}, {"measurement": "IC50", "setting": "[8]", "value": 9.8, "unit": "µM"}, {"measurement": "IC50", "setting": "[9]; HCT116 p53 mut cells", "value": 8.8, "unit": "µM"}]}
{"smiles": "CC(=O)OC[C@H]1O[C@H](OC[C@@]23CC[C@]4(C)C(CCC5[C@@]6(C)CC[C@H](OC(C)=O)C(C)(C)C6CC[C@]54C)C2=C(C(C)C)C(=O)C3)C[C@@H](OC(C)=O)[C@@H]1OC(C)=O", "note": "(stereo partly shown) [Compound 1b]", "values": [{"measurement": "IC50", "setting": "[1]", "value": 41.5, "unit": "µM"}, {"measurement": "IC50", "setting": "[2]", "value": 10.1, "unit": "µM"}, {"measurement": "IC50", "setting": "[3]", "value": 6.4, "unit": "µM"}, {"measurement": "IC50", "setting": "PC-3", "value": 39.3, "unit": "µM"}, {"measurement": "IC50", "setting": "[4]", "value": 9.2, "unit": "µM"}, {"measurement": "IC50", "setting": "[5]; HCT116 p53wt cells", "value": 8.6, "unit": "µM"}, {"measurement": "IC50", "setting": "[6]", "value": "≥ 250", "unit": "µM"}, {"measurement": "IC50", "setting": "[7]; MCF-7 cells", "value": 17, "unit": "µM"}, {"measurement": "IC50", "setting": "[8]", "value": 9.5, "unit": "µM"}, {"measurement": "IC50", "setting": "[9]; HCT116 p53 mut cells", "value": 12.4, "unit": "µM"}]}
{"smiles": "CC(=O)OC[C@H]1O[C@H](OC[C@@]23CC[C@]4(C)C(CCC5[C@@]6(C)CC[C@H](OC(C)=O)C(C)(C)C6CC[C@]54C)C2=C(C(C)C)C(=O)C3)C[C@@H](Br)[C@@H]1OC(C)=O", "note": "(stereo partly shown) [Compound 1c]", "values": [{"measurement": "IC50", "setting": "[1]", "value": 27, "unit": "µM"}, {"measurement": "IC50", "setting": "[2]", "value": 40.9, "unit": "µM"}, {"measurement": "IC50", "setting": "[3]", "value": 9, "unit": "µM"}, {"measurement": "IC50", "setting": "PC-3", "value": "≥ 250", "unit": "µM"}, {"measurement": "IC50", "setting": "[4]", "value": 3.8, "unit": "µM"}, {"measurement": "IC50", "setting": "[5]; HCT116 p53wt cells", "value": 19.1, "unit": "µM"}, {"measurement": "IC50", "setting": "[6]", "value": "≥ 250", "unit": "µM"}, {"measurement": "IC50", "setting": "[7]; MCF-7 cells", "value": 35.2, "unit": "µM"}, {"measurement": "IC50", "setting": "[8]", "value": 22.6, "unit": "µM"}, {"measurement": "IC50", "setting": "[9]; HCT116 p53 mut cells", "value": 14, "unit": "µM"}]}
{"smiles": "COC(=O)[C@@]12CC[C@]3(C)C(CCC4[C@@]5(C)CC[C@H](OC6CC(OC(C)=O)C(OC(C)=O)C(COC(C)=O)O6)C(C)(C)C5CC[C@]43C)C1=C(C(C)C)C(=O)C2", "note": "(stereo partly shown) [Compound 2b]", "values": [{"measurement": "IC50", "setting": "[1]", "value": 25, "unit": "µM"}, {"measurement": "IC50", "setting": "[2]; Homo sapiens", "value": 2.4, "unit": "µM"}, {"measurement": "IC50", "setting": "[3]; Homo sapiens", "value": 0.6, "unit": "µM"}, {"measurement": "IC50", "setting": "PC-3; Homo sapiens", "value": 22.1, "unit": "µM"}, {"measurement": "IC50", "setting": "[4]; Homo sapiens, CCRF-CEM", "value": 0.6, "unit": "µM"}, {"measurement": "IC50", "setting": "[5]; Homo sapiens, HCT-116, HCT116 p53wt cells", "value": 1.6, "unit": "µM"}, {"measurement": "IC50", "setting": "[6]; Homo sapiens, U-87 MG", "value": "≥ 250", "unit": "µM"}, {"measurement": "IC50", "setting": "[7]; Homo sapiens, MCF7, MCF-7 cells", "value": 2.5, "unit": "µM"}, {"measurement": "IC50", "setting": "[8]; Homo sapiens", "value": 3, "unit": "µM"}, {"measurement": "IC50", "setting": "[9]; Homo sapiens, HCT-116, HCT116 p53 mut cells", "value": 3.5, "unit": "µM"}]}
{"smiles": "COC(=O)[C@@]12CC[C@]3(C)C(CCC4[C@@]5(C)CC[C@H](O[C@@H]6C[C@@H](O)[C@@H](O)[C@@H](CO)O6)C(C)(C)C5CC[C@]43C)C1=C(C(C)C)C(=O)C2", "note": "(stereo partly shown) [Compound 3a]", "values": [{"measurement": "IC50", "setting": "[1]", "value": 34.4, "unit": "µM"}, {"measurement": "IC50", "setting": "[2]", "value": 17.8, "unit": "µM"}, {"measurement": "IC50", "setting": "[3]", "value": 11.5, "unit": "µM"}, {"measurement": "IC50", "setting": "PC-3", "value": 11.2, "unit": "µM"}, {"measurement": "IC50", "setting": "[4]", "value": 4.7, "unit": "µM"}, {"measurement": "IC50", "setting": "[5]; HCT116 p53wt cells", "value": 10.3, "unit": "µM"}, {"measurement": "IC50", "setting": "[6]", "value": 53, "unit": "µM"}, {"measurement": "IC50", "setting": "[7]; MCF-7 cells", "value": 13.6, "unit": "µM"}, {"measurement": "IC50", "setting": "[8]", "value": 15.9, "unit": "µM"}, {"measurement": "decomposition on storage", "setting": "[10]", "value": "without any detectable decomposition"}, {"measurement": "IC50", "setting": "[9]; HCT116 p53 mut cells", "value": 17.5, "unit": "µM"}]}
{"smiles": "COC(=O)[C@@]12CC[C@]3(C)C(CCC4[C@@]5(C)CC[C@H](O[C@@H]6C[C@@H](O)[C@H](O)[C@@H](CO)O6)C(C)(C)C5CC[C@]43C)C1=C(C(C)C)C(=O)C2", "note": "(stereo partly shown) [Compound 3b]", "values": [{"measurement": "IC50", "setting": "[1]", "value": 25, "unit": "µM"}, {"measurement": "IC50", "setting": "[2]", "value": 18.9, "unit": "µM"}, {"measurement": "IC50", "setting": "[3]", "value": 11.6, "unit": "µM"}, {"measurement": "IC50", "setting": "PC-3", "value": 36.4, "unit": "µM"}, {"measurement": "IC50", "setting": "[4]", "value": 6.2, "unit": "µM"}, {"measurement": "IC50", "setting": "[5]; HCT116 p53wt cells", "value": 11.5, "unit": "µM"}, {"measurement": "IC50", "setting": "[6]", "value": 42.7, "unit": "µM"}, {"measurement": "IC50", "setting": "[7]; MCF-7 cells", "value": 18.4, "unit": "µM"}, {"measurement": "IC50", "setting": "[8]", "value": 12.9, "unit": "µM"}, {"measurement": "IC50", "setting": "[9]; HCT116 p53 mut cells", "value": 21, "unit": "µM"}]}
